Columns and labels:
[1] = for pH value upon addition to water: 45° C., aqueous solution
Description: The procedure for both syntheses was identical so that they are summarized here. 54 g of CaO or respectively MgO were each subjected to a 10-minute activation. In order to have a sufficiently high operating temperature for the thermal activation, the empty mill was already brought to an operating temperature of 110° C. before the experiments. After the mechanical activation, a thermal activation of respectively 15 min. took place in both cases.

bulk material properties = type: physicochemical; conditions: water content <2%
Source text: The grain shape was examined with the scanning electron microscope and produced the typical, needle-shaped crystals of the glycinates and their agglomerates. With respect to the bulk material properties, the particle distribution analysis found a d50 value of 50 μm. The material is free-flowing, has a water content of <2% and is stable.

Structure (SMILES) | pH value upon addition to water [1] | other results
NCC(=O)[O-].NCC(=O)[O-].[Mg+2] [magnesium glycinate] | 8 | –
NCC(=O)[O-].NCC(=O)[O-].[Cu+2] [Example 1, bis (glycinato) copper] | – | stability of the material (bulk material properties): stable
NCC(=O)[O-].NCC(=O)[O-].[Ca+2] [calcium glycinate] | 7.5 | –
[O]=[Mg] [MgO] | – | stability (non-dissolution) in the presence of HCl [1]: stable up to pH 0

Reference: patent US9346830B2, “Method for producing amino acid chelate compounds, amino acid chelate compounds and use of amino acid chelate compounds” (ISF AG, priority 2011, dated 2016)
